In brackets after ≈: the same amount, converted by molar mass. Read-outs that look alike come from different tables or passages of the source.
Tests used:
[1] = tested on: extracellular L. donovani promastigotes; test: Effect of compounds on promastigote viability (resazurin assay); format: cell-based, Leishmania donovani; conditions: for MIC50: Leishmania donovani, 72-hour incubation
Procedure: The effect of compounds on extracellular promastigotes was evaluated using a resazurin-based assay as described previously. In short, late log phase Leishmania promastigotes were seeded in a 96 well plate at 1 x 10^5 parasites per well and treated with drugs (0.5 – 200 μM) for 72 hours at 25°C. Ten microliters of resazurin (0.02% w/v) were added to the treated parasites to achieve a final concentration of 0.002% w/v and incubated for 24 hours. Viability of the promastigotes was assessed by fluorescence (excitation 544 nm, emission 590 nm, SpectraMax M2, Molecular Devices).

[2] = tested on: intracellular L. donovani in WT and Lys K/O BMDMs; test: 197 target validation: Giemsa staining in BMDMs from wild-type and lysozyme knockout mice; format: cell-based, Leishmania donovani; conditions: WT vs Lys K/O BMDMs
Description: B6.129P2-Lyz2^tm1(cre)Ifo/J mice[23] (stock #004781, herein termed ‘Lys K/O’) were obtained from Jackson Laboratory. This strain has a nuclear-localized Cre recombinase inserted into the first coding ATG of the lysozyme 2 gene (Lyz2) which eliminates endogenous Lyz2 gene function. Wildtype C57BL6/J mice (stock #000664) were obtained as a control.
Bone marrow derived macrophages (BMDMs) were isolated from both mice and cultured as described above in “Image-based Evaluation of Intracellular Anti-Leishmanial Activity”. BMDMs were seeded onto glass cover slips, infected with LV82 L. donovani at a multiplicity of infection of 1:10. Cells were washed to remove extracellular promastigotes and treated with compounds (197, amphotericin B) for a 72-hour incubation. BMDM cells were then washed with phosphate buffered saline, fixed with ice-cold methanol, and stained with Giemsa (5% v/v in water). The cover slips with stained cells are mounted onto glass slides and imaged on EVOS XL (100X, Thermo Fisher Scientific). Leishmania amastigotes per 100 macrophages were determined in a blinded manner.

lysozyme = molecular target: T1, lysozyme (Homo sapiens, UniProt P61626); test: Affinity capture with 197-bead in Leishmania infected macrophage lysate; format: binding; conditions: 197-bead vs control bead
T1 construct: endogenous in cells; host or cells: THP-1 cells differentiated with PMA and infected with L. mexicana promastigotes; cell lysate
T1 sequence (P61626 19-148): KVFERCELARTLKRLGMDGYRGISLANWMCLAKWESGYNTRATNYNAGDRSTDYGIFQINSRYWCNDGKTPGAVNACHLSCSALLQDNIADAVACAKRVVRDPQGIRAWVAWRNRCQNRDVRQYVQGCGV
Procedure: To generate cell lysate, ten million THP-1 cells were plated overnight in a 10cm dish, then differentiated with 150 nM phorbol 12-myristate 13-acetate (PMA) for 72 hours. The resulting macrophages were infected with L. mexicana promastigotes at a multiplicity of infection of 1:10 and incubated for 18 hours. After infection, cells were washed three times with PBS to remove extracellular promastigotes. Cells were then collected by scraping and pelleted with centrifugation. The cell pellet was resuspended in cell buffer (50mM Tris-HCl, 150mM NaCl, 2mM EDTA, 0.5% triton-x-100) and subjected to five freeze-thaw cycles. Samples were centrifuged 14,000g x 10 minutes to remove cellular debris. Protein concentration of supernatant was determined by BCA assay and cell lysate was stored at −80°C until further use.
Functionalized agarose beads were made as follows. NHS activated agarose beads were washed three times to remove acetone and resuspended in PBS to create a slurry. 494 (197 with ligation chemical handle) was prepared in 0.3 mL at 25mM in DMSO and 1.7 mL PBS was added to 1 mL of agarose slurry for a final volume of 3 mL at a concentration of 2.5mM (10% v/v DMSO). […]
500 μg cell lysate was incubated with 200 μL slurry at a final volume of 1 mL for 1 hr. […] Peptides were extracted, acidified, desalted using C18 spin columns, and analyzed by LC-MS/MS using Thermo Easy nLC 1200-QExactive HF. […]

[3] = tested on: intracellular L. donovani amastigotes; test: Luminescent-based evaluation of intracellular anti-leishmanial activity in THP-1 macrophages; format: cell-based, Leishmania donovani; conditions: Leishmania donovani, THP-1; THP1 macrophages, luminescence assay, 72 hours of treatment; read-out: Intracellular L. donovani amastigotes Lum IC50
Method in brief: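 PMA-differentiated THP-1 macrophages (150 nM, 72 h) were infected 18 h with firefly luciferase-expressing L. donovani LV82 promastigotes, then washed. Infected cells were treated with compounds at 0.1-10 μM for 72 h. Surviving intracellular amastigotes were quantified by firefly luciferase luminescence after cell lysis and 10 min substrate incubation at room temperature.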

With `O=C(CNCc1cccc(F)c1)Nc1ccc(-n2cc(C(F)(F)F)nc2-c2ccc(-c3ccc(C(F)(F)F)cc3)cc2)cc1` [Compound 197] the MIC50 ([1]; resazurin assay (Table 3), read-out: L. donovani Extracellular promastigotes MIC50) was 6.4 µM (≈ 3.92 µg/mL), the MIC50 ([1]; resazurin assay, read-out: Extracellular L. donovani promastigotes MIC50) was 6.4 µM (≈ 3.92 µg/mL) and the “direct effect on extracellular promastigote viability” value ([1]; resazurin assay, strain not named for 53, L. donovani for 197) was “some direct reduction”. The “anti-leishmanial activity in Lys K/O BMDMs” value [2] was “notably decreased”, the “affinity capture abundance of lysozyme, Log2 fold change” value (lysozyme) was 6.57 and the IC50 [3] was 2400 nM.
